Experimental data published in ChEMBL document CHEMBL5291721, “A preclinical secondary pharmacology resource illuminates target-adverse drug reaction associations of marketed drugs” (Nat Commun, 2023).

Experiments:
[1] = molecular target: T1, Alpha-2A adrenergic receptor (Homo sapiens, UniProt P08913)
T1 sequence (P08913 whole entry): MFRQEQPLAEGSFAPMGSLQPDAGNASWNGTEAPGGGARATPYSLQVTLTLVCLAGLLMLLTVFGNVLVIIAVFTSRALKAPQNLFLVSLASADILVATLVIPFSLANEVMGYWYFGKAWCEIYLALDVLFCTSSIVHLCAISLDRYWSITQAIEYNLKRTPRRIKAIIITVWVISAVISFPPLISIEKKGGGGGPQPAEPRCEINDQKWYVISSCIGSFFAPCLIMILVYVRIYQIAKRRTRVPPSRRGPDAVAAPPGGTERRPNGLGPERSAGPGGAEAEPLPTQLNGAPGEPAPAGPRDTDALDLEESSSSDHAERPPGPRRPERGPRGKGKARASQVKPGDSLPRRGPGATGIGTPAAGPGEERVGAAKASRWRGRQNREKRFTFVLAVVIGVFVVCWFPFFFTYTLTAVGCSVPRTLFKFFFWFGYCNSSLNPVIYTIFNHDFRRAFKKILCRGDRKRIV

[2] = molecular target: cGMP-inhibited 3',5'-cyclic phosphodiesterase 3A (Homo sapiens, UniProt Q14432); type: functional
[3] = molecular target: T2, Progesterone receptor (Homo sapiens, UniProt P06401)
T2 sequence (P06401 whole entry): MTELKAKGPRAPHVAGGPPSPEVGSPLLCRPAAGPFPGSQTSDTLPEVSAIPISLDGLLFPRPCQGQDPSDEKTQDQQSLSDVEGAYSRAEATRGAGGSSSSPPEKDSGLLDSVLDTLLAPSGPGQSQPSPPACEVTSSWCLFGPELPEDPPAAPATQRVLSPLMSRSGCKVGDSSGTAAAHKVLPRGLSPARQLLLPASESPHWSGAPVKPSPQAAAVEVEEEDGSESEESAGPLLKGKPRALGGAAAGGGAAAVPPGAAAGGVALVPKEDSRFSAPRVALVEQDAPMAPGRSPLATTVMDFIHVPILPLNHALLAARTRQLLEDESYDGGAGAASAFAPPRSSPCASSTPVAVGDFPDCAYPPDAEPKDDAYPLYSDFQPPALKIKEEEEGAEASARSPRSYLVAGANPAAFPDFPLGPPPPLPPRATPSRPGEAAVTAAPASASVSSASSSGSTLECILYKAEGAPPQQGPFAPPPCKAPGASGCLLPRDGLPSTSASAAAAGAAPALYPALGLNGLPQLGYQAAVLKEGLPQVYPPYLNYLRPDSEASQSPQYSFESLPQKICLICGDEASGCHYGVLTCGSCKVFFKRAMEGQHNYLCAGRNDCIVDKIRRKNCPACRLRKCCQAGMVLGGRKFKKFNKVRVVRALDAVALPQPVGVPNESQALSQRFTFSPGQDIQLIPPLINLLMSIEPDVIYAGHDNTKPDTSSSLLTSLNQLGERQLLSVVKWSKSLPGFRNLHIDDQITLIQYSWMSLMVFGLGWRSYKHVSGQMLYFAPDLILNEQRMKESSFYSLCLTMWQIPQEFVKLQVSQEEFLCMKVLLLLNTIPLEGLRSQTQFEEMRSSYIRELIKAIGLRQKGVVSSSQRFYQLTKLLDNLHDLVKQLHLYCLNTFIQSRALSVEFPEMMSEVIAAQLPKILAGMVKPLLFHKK

[4] = molecular target: T3, Muscarinic acetylcholine receptor M4 (Homo sapiens, UniProt P08173)
T3 sequence (P08173 whole entry): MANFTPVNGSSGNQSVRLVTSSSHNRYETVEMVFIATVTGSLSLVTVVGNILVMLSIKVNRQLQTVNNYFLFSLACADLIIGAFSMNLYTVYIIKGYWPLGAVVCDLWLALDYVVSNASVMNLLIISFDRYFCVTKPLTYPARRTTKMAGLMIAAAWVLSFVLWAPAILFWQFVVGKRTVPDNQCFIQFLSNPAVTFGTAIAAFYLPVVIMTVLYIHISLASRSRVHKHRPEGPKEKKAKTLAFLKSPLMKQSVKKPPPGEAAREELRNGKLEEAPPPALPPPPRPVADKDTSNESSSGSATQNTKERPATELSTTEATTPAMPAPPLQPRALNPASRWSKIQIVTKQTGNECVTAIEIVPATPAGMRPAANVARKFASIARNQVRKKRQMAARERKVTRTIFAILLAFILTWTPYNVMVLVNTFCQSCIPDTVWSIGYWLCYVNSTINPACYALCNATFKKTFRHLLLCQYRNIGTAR

[5] = molecular target: T4, Muscarinic acetylcholine receptor M5 (Homo sapiens, UniProt P08912)
T4 sequence (P08912 whole entry): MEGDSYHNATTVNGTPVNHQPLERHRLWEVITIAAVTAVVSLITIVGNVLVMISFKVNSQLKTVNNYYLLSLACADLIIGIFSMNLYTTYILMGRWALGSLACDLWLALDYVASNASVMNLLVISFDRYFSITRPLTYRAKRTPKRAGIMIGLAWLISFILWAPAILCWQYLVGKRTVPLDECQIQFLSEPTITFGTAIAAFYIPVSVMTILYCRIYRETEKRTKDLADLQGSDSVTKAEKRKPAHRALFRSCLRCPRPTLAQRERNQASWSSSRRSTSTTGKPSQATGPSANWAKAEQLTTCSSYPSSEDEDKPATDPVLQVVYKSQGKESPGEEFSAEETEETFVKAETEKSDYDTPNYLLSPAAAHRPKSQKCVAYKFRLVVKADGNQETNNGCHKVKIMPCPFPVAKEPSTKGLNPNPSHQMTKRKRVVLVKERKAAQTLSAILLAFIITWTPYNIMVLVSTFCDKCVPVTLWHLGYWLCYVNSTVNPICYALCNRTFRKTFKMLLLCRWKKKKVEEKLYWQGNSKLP

[6] = molecular target: D(1B) dopamine receptor (Homo sapiens, UniProt P21918)
[7] = molecular target: Rod cGMP-specific 3',5'-cyclic phosphodiesterase subunit alpha (Homo sapiens, UniProt P16499); type: functional
[8] = molecular target: T5, Substance-K receptor (Homo sapiens, UniProt P21452)
T5 sequence (P21452 whole entry): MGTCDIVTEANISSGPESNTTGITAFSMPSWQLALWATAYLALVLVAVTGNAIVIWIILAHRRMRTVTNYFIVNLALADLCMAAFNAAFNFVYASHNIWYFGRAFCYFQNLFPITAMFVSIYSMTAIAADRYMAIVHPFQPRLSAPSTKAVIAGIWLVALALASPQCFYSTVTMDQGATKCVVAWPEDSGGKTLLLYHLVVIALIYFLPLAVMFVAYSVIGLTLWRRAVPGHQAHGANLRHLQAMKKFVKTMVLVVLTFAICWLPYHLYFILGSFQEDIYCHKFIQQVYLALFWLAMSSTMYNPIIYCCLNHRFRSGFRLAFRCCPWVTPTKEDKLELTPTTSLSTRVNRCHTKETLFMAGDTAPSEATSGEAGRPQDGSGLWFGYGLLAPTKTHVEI
Further: assay procedure not described here.

Sequence of D(1B) dopamine receptor (P21918 whole entry): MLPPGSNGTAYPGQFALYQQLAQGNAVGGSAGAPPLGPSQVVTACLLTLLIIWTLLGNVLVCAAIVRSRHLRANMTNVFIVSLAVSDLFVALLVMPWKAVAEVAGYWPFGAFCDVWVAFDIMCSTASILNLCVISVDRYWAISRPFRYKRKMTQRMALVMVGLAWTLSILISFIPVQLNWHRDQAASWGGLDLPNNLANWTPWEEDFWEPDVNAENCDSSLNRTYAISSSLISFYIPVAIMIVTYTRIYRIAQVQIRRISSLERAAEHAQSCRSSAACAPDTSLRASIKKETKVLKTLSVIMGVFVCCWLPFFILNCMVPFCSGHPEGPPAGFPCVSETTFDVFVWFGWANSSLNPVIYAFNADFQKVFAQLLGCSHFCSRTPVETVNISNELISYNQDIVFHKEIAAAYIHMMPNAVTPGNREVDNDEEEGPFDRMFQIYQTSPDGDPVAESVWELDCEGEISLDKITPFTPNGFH
Sequence of Rod cGMP-specific 3',5'-cyclic phosphodiesterase subunit alpha (P16499 whole entry): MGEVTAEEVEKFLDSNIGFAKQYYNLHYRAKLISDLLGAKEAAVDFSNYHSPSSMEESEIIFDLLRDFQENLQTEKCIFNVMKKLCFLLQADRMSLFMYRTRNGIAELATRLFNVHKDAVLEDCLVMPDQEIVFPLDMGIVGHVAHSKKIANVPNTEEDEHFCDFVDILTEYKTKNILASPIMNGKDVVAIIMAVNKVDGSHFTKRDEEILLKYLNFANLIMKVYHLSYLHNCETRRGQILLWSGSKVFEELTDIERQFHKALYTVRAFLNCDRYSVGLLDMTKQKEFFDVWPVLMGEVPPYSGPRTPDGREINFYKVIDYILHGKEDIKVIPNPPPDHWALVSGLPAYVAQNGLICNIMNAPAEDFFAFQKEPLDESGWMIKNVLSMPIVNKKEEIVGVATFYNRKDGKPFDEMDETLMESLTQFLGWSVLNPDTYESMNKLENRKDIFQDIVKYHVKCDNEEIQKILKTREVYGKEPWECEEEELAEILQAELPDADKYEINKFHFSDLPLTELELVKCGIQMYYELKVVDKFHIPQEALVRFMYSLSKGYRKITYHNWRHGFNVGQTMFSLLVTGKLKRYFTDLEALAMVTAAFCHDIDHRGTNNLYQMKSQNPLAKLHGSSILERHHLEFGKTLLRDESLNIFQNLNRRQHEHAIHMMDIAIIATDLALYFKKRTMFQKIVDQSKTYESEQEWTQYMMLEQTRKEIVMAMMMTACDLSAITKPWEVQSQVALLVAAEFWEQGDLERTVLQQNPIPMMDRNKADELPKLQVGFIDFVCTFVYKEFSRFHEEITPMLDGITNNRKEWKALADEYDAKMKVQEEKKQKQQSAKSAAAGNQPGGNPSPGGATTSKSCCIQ
Sequence of cGMP-inhibited 3',5'-cyclic phosphodiesterase 3A (Q14432 whole entry): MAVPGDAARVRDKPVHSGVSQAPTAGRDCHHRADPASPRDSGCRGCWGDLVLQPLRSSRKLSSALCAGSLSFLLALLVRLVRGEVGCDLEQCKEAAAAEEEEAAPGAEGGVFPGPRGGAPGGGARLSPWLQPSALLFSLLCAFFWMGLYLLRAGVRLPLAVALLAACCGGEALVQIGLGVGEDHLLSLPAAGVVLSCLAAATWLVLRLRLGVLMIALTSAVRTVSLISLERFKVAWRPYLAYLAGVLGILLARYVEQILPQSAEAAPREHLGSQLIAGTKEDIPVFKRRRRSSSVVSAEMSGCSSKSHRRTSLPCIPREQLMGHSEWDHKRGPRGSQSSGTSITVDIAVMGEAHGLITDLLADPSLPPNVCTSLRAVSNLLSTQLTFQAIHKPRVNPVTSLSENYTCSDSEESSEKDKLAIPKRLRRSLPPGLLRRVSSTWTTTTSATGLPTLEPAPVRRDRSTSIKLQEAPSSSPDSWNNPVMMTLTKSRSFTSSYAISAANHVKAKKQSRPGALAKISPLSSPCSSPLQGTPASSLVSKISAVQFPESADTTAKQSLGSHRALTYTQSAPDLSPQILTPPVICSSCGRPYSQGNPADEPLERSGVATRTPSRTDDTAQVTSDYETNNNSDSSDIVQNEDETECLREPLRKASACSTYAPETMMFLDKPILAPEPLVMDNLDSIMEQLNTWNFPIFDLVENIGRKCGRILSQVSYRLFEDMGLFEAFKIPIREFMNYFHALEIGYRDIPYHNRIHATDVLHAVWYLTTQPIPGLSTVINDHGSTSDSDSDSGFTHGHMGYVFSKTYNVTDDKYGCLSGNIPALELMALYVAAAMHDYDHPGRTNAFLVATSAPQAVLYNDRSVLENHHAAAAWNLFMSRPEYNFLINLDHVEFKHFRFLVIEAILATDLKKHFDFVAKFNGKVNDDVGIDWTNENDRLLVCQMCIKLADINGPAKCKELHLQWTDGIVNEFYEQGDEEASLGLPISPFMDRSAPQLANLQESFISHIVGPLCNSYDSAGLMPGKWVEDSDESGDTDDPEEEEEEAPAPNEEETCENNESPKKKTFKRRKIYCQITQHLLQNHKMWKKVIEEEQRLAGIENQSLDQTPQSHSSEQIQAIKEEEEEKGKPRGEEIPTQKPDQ

Row | Compound | AC50 [1] | AC50 [2] | AC50 [3] | AC50 [4] | AC50 [5] | AC50 [6] | AC50 [7] | AC50 [8]
1 | NCCCC(O)(P(=O)(O)O)P(=O)(O)O [ALENDRONIC ACID] | > 30 µM | > 30 µM | > 30 µM | – | – | – | – | –
2 | COC1=C(OC)C(=O)C(CCCCCCCCCCO)=C(C)C1=O [IDEBENONE] | – | – | – | > 10 µM | > 10 µM | > 10 µM | > 10 µM | > 10 µM
3 | O=C1CN=C(c2ccccc2)c2cc(Cl)ccc2N1 [NORDAZEPAM] | – | – | – | > 10 µM | > 10 µM | > 10 µM | > 10 µM | > 10 µM
4 | CC(CCc1ccccc1)NC(C)C(O)c1ccc(O)cc1 (centres undefined) [NYLIDRIN] | – | – | – | > 10 µM | > 10 µM | > 10 µM | > 10 µM | > 10 µM
5 | O=C1Nc2ccc(Cl)cc2C(c2ccccc2)=NC1O (centres undefined) [OXAZEPAM] | – | – | – | > 10 µM | > 10 µM | > 10 µM | > 10 µM | > 10 µM
6 | C[n+]1ccccc1/C=N/O [PRALIDOXIME] | > 30 µM | > 30 µM | > 30 µM | – | – | – | – | –
7 | N#C[C@@H]1CCCN1C(=O)CNC12CC3CC(CC(O)(C3)C1)C2 [VILDAGLIPTIN] | – | – | – | > 10 µM | > 10 µM | > 10 µM | > 10 µM | > 10 µM
8 | COLISTIN | > 30 µM | > 30 µM | > 30 µM | – | – | – | – | –
